Results: the METLIN SMRT retention time set (Domingo-Almenara et al. 2019)

assay: gradient 5% acetonitrile 3 min, to 50% in 2 min, to 85% in 15 min, held 3 min, 100 µL/min; conditions: column: Zorbax Extend-C18 2.1 x 50 mm; eluents: water / acetonitrile, 0.1% formic acid
Outline: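 Values are retention times taken from adduct peaks that software picked and an analyst inspected. The pure standards were run as mixtures of ~100 molecules on HPLC linked to a quadrupole time-of-flight mass spectrometer, in positive and negative ionization mode. A Zorbax Extend-C18 column (2.1 × 50 mm, 1.8 μm) was used at 100 μL/min with water and acetonitrile, each including 0.1% formic acid.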

| RP-LC retention time | SMILES |
| --- | --- |
| 739 s | O=C(Nc1nc(CC(=O)N2CCCc3ccccc32)cs1)C1CC1 |
| 684 s | Nc1cc(C2CCN(C(=O)Cc3ccc(F)cc3)CC2)no1 |
| 908 s | Cc1ccccc1Oc1nccn2c(=O)n(CC(=O)Nc3cc(F)ccc3F)nc12 |
| 827 s | O=C(c1ccc(C(F)(F)F)cc1)N1CCC(n2c(-c3ccoc3)nc3cccnc32)C1 (stereo not drawn) |
| 609 s | COCC1CN(S(=O)(=O)c2cccc(C#N)c2)CC12CCNCC2 (stereo not drawn) |
| 798 s | CCC(C)NC(=O)c1nc2cc(C)c(C)cc2n(C)c1=O (stereo not drawn) |
| 836 s | CCOCc1nc(C2CCCN2S(=O)(=O)c2cccc3nsnc23)no1 (stereo not drawn) |
| 780 s | O=C(NCCn1ncc2c(=O)n(Cc3cccc(Cl)c3)cnc21)c1cc2ccccc2o1 |
| 1150 s | O=C(NCc1ccccc1F)C1CCCN(c2nc3ccccc3n(Cc3ccccc3)c2=O)C1 (stereo not drawn) |
| 640 s | O=C(Nc1cccc(-c2nnc3n2CCCC3)c1)c1ccco1 |
| 918 s | CC1(C)O[C@H]2CC(=O)OC[C@]23[C@H]2CC[C@@]4(C)[C@H](c5ccoc5)OC(=O)C5O[C@]54[C@]2(C)C(=O)C[C@@H]13 (stereo partly drawn) |
| 1010 s | O=C(Nc1cccc(OCc2nnc(-c3ccccc3)o2)c1)C1COc2ccccc2O1 (stereo not drawn) |
| 863 s | COC(=O)c1cc(OCC(=O)Nc2ccc3c(c2)OCO3)c2cc(Cl)ccc2n1 |
| 664 s | COc1ccc(-c2cc3c(=O)n(Cc4noc(CN5CCC(C)CC5)n4)ccn3n2)cc1 |
| 745 s | O=C(CN1C(=O)COc2ccc(C(=O)N3CCCC3)cc21)NCc1ccc(Cl)cc1 |
| 599 s | O=C(Cc1cccs1)N1CC(c2noc(C3CCCN3CC3CC3)n2)C1 (stereo not drawn) |
| 1160 s | O=S(=O)(c1cccc(Cl)c1)N1CCC(c2noc(-c3ccccc3)n2)CC1 |
| 1010 s | Cc1cc(C)n(-c2cc(Nc3ccccc3)ncn2)n1 |
| 585 s | COCCN(C)C(=O)c1cn(C2CN(S(=O)(=O)c3cn(C)cn3)C2)nn1 |
| 661 s | CCc1ccc(S(=O)(=O)c2cnc(N3CCC(C(N)=O)(N4CCCCC4)CC3)nc2N)cc1 |
| 735 s | CCCc1ccc(S(=O)(=O)N2CCC3(CC2)CCC(O)(CN2CCCC2)CC3)cc1 |
| 1020 s | CCOC(=O)Cc1ccc(NC(=O)N2CCc3cn(CC)c4cccc(c34)C2)cc1 |

| RP-LC retention time | SMILES |
| --- | --- |
| 759 s | Cc1ccccc1Nc1c(-c2ccccc2)nc2ncccn12 |
| 895 s | CCCCN(C(=O)c1noc2c1CC(C)CC2)C1CCN(C(C)=O)CC1 (stereo not drawn) |
| 764 s | COc1ccc(C)cc1Nc1c(-c2nc(C)no2)cnc2nc(C)ccc12 |
| 577 s | CNc1cccnc1OC1CCN(Cc2ccccn2)C1 (stereo not drawn) |
| 1300 s | Cc1cc(=O)n(Cc2ccc(OC(F)(F)F)cc2)c(Nc2ccc(F)c(F)c2)n1 |
| 674 s | Cc1noc(C2CN(CCc3ccccc3)CC23CCCC3)n1 (stereo not drawn) |
| 718 s | COc1ccc(NC(=O)C2CCc3nc(N4CCOCC4)ncc3C2)cc1F (stereo not drawn) |
| 636 s | COCC1CCN(C(=O)CCC2CCN(c3cc(NC4CC4)ncn3)CC2)CC1 |
| 607 s | CSc1ccccc1CN1CCC(CNS(=O)(=O)/C=C/c2ccccc2)CC1 |
| 599 s | CN1CCN(CCNC(=O)c2cnn3c4c(cnc23)CCCCCC4)CC1 |
| 596 s | Cc1ccc(C)c(NC(=O)N2CCN(CCn3cnc4cccnc43)CC2)c1 |
| 759 s | COC(=O)c1c(C)[nH]c(C(=O)N2CCCC(C(=O)NC3CCCCC3)C2)c1C (stereo not drawn) |
| 771 s | CCc1ccc(CNC(=O)C2(CC)CCCCC(=O)N2)cc1 (stereo not drawn) |
| 754 s | COC(=O)c1cccc(Nc2c(-c3ccc(N4CCOCC4)cc3)nc3cnccn23)c1 |
| 1080 s | COc1cccc(-c2ccc(=O)n(Cc3nc(-c4cccc(Cl)c4)no3)n2)c1 |
| 618 s | CCc1nc2cc3c(cc2n1CC(=O)Nc1ccc2c(c1)OCCO2)OCCO3 |
| 958 s | CC(C)c1ccc(-c2nc3ccccc3s2)cc1 |
| 719 s | COc1ccc(Cl)cc1C(=O)Nc1ccc(-c2nc(C)no2)cc1 |
| 1060 s | COC(=O)c1sccc1NC(=O)Cn1c(C)cc(C)c(-c2nc(-c3ccccc3)no2)c1=O |
| 809 s | COCCOC1CCN(S(=O)(=O)Cc2ccccc2F)CC1 |
| 1340 s | Cc1ccc(-c2csc(Nc3ccc(Br)cn3)n2)cc1C |
| 714 s | Cc1ccc(C(=O)c2cnc3cc4c(cc3c2N2CCOCC2)OCO4)cc1C |

| RP-LC retention time | SMILES |
| --- | --- |
| 712 s | O=C(NCc1ccccn1)c1nnn(Cc2ccccc2Cl)c1-n1cccc1 |
| 680 s | Cc1cc(C)cc(NC(=O)N2CCCC(Cn3cnc4cccnc43)C2)c1 (stereo not drawn) |
| 902 s | CCN1C(=O)C(C)(C(=O)NCc2ccc(F)c(Cl)c2)Oc2cccnc21 (stereo not drawn) |
| 630 s | Cc1cc(C(=O)NCCCN2CCOCC2)nc2cc(-c3ccccn3)nn12 |
| 978 s | CCOc1cccc(-c2noc(CCn3nc(-c4ccc5c(c4)OCO5)ccc3=O)n2)c1 |
| 914 s | COC(=O)C1=CN(c2ccc(OC)c(Cl)c2)c2cc(F)ccc2S1(=O)=O |
| 596 s | Cn1nnnc1SCCNCc1ccc(Cl)cc1Cl |
| 923 s | O=C(c1ccc2c(c1)CCC(=O)N2Cc1ccccc1)N1CCN(c2ccc(F)cc2)CC1 |
| 706 s | Cc1ccc(CNC(=O)c2ccc(Cn3nc(N4CCN(c5ccccc5)CC4)ccc3=O)o2)o1 |
| 686 s | Cc1cnc(-c2ccccc2)n1C1CCN(S(=O)(=O)Cc2ccccc2)CC1 |
| 681 s | COc1ccc(-c2ccnc3ncnn23)c(F)c1 |
| 806 s | COc1ccc(C(=O)NC2CCN(c3ccc(F)cc3)C2=O)cc1F (stereo not drawn) |
| 779 s | CNC(=O)N1CCCC(c2cccc(C(=O)NCc3ccc(SC)cc3)c2)C1 (stereo not drawn) |
| 983 s | CC1CCc2nn(CC(=O)Nc3cc(F)ccc3F)cc2C1 (stereo not drawn) |
| 599 s | CCOc1ccc2ncc(C(=O)c3ccc(OC)cc3)c(N3CCN(C)CC3)c2c1 |
| 799 s | CC(=O)Nc1ccc(-c2nc3ccccc3s2)cc1 |
| 648 s | CCOC(=O)c1csc(NC(=O)CC[C@H]2NC(=O)c3ccccc3NC2=O)n1 |
| 980 s | CN(CC1(C)CCOCC1)S(=O)(=O)c1cccc(C(F)(F)F)c1 |
| 912 s | O=C(NCc1ccco1)Nc1cccc(-c2noc(C3CCC3)n2)c1 |
| 742 s | Cc1ccc(CC(=O)NCc2c(C)noc2C)cc1 |
| 806 s | O=C1CCCCC(Cc2ccccc2)(C(=O)NCCc2ccccc2)N1 (stereo not drawn) |
| 938 s | Cc1cc(-c2nnc(-c3ccc(F)cc3)o2)c(C)n1CC(=O)Nc1ccc2c(c1)OCO2 |

| SMILES | RP-LC retention time |
| --- | --- |
| COc1cccc(Cn2nnc(C(=O)O)c2C(C)C)c1 | 694 s |
| Clc1cc(I)cc(Cl)c1NC1=NCCN1 | 655 s |
